Source: the supplement of paper PMC10307832

Key:
Experiment in all cases: relative viability (nuclei count vs DMSO), 5 days (fraction); higher = more cells survive
NCI-H2009 = system: NCI-H2009
Procedure, shortened: (§1)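 The day after seeding in 1536-well plates, lung cancer cell lines were treated by pin tool with a single drug, or with a fixed anchor-drug dose together with five library-drug doses (not always all listed) in √10 steps. After 5 days, a combined fix-and-stain solution (final 0.05% Triton X-100, 1% formaldehyde, 1 ug/ml Hoechst) was added. Nuclei counted on 4× images gave relative viability as treated counts over vehicle counts, reported as the median of duplicate plates.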

SW 1573 = system: SW 1573
Procedure, shortened: as §1

NCI-H2023 = system: NCI-H2023
Procedure, shortened: as §1

NCI-H2405 = system: NCI-H2405
Procedure, shortened: as §1

NCI-H2085 = system: NCI-H2085
Procedure, shortened: as §1

HCC-827 = system: HCC-827
Procedure, shortened: as §1

NCI-H1355 = system: NCI-H1355
Procedure, shortened: as §1

ABC-1 = system: ABC-1
Procedure, shortened: as §1

HCC-44 = system: HCC-44
Procedure, shortened: as §1

EPLC-272H = system: EPLC-272H
Procedure, shortened: as §1

PC-14 = system: PC-14
Procedure, shortened: as §1

NCI-H2228 = system: NCI-H2228
Procedure, shortened: as §1

COR-L23 = system: COR-L23
Procedure, shortened: as §1

NCI-H1734 = system: NCI-H1734
Procedure, shortened: as §1

NCI-H2347 = system: NCI-H2347
Procedure, shortened: as §1

HCC-366 = system: HCC-366
Procedure, shortened: as §1

NCI-H1944 = system: NCI-H1944
Procedure, shortened: as §1

HCC-15 = system: HCC-15
Procedure, shortened: as §1

NCI-H1793 = system: NCI-H1793
Procedure, shortened: as §1

NCI-H3122 = system: NCI-H3122
Procedure, shortened: as §1

Structure (SMILES): Nc1cccc2c1CN(C1CCC(=O)NC1=O)C2=O (configuration not stated) [Lenalidomide] + CS(=O)(=O)CCNCc1ccc(-c2ccc3ncnc(Nc4ccc(OCc5cccc(F)c5)c(Cl)c4)c3c2)o1 [Lapatinib] (partner 2 µM)
- relative viability (NCI-H2009; first compound 0.253 µM): 0.919
- relative viability (NCI-H2009; first compound 0.8 µM): 0.947
- relative viability (NCI-H2009; first compound 2.53 µM): 1.25
- relative viability (NCI-H2009; first compound 8 µM): 1.25
- relative viability (SW 1573; first compound 0.253 µM): 1.12
- relative viability (SW 1573; first compound 0.8 µM): 1.08
- relative viability (SW 1573; first compound 2.53 µM): 1.12
- relative viability (SW 1573; first compound 8 µM): 0.992
- relative viability (NCI-H2023; first compound 0.253 µM): 0.74
- relative viability (NCI-H2023; first compound 0.8 µM): 0.859
- relative viability (NCI-H2023; first compound 2.53 µM): 0.838
- relative viability (NCI-H2023; first compound 8 µM): 0.568
- relative viability (NCI-H2405; first compound 0.253 µM): 1
- relative viability (NCI-H2405; first compound 0.8 µM): 0.949
- relative viability (NCI-H2405; first compound 2.53 µM): 1.03
- relative viability (NCI-H2405; first compound 8 µM): 0.884
- relative viability (NCI-H2085; first compound 0.253 µM): 0.731
- relative viability (NCI-H2085; first compound 0.8 µM): 0.538
- relative viability (NCI-H2085; first compound 2.53 µM): 0.912
- relative viability (NCI-H2085; first compound 8 µM): 0.477
- relative viability (HCC-827; first compound 0.253 µM): 0.189
- relative viability (HCC-827; first compound 0.8 µM): 0.202
- relative viability (HCC-827; first compound 2.53 µM): 0.151
- relative viability (HCC-827; first compound 8 µM): 0.185
- relative viability (NCI-H1355; first compound 0.253 µM): 1
- relative viability (NCI-H1355; first compound 0.8 µM): 0.623
- relative viability (NCI-H1355; first compound 2.53 µM): 0.963
- relative viability (NCI-H1355; first compound 8 µM): 0.606
- relative viability (ABC-1; first compound 0.253 µM): 1.13
- relative viability (ABC-1; first compound 2.53 µM): 1.11
- relative viability (ABC-1; first compound 8 µM): 1.34
- relative viability (HCC-44; first compound 0.253 µM): 0.997
- relative viability (HCC-44; first compound 0.8 µM): 0.799
- relative viability (HCC-44; first compound 2.53 µM): 1.05
- relative viability (HCC-44; first compound 8 µM): 0.924
- relative viability (EPLC-272H; first compound 0.253 µM): 0.97
- relative viability (EPLC-272H; first compound 2.53 µM): 0.976
- relative viability (EPLC-272H; first compound 8 µM): 0.648
- relative viability (PC-14; first compound 0.253 µM): 0.294
- relative viability (PC-14; first compound 0.8 µM): 0.32
- relative viability (PC-14; first compound 2.53 µM): 0.4
- relative viability (PC-14; first compound 8 µM): 0.302
- relative viability (NCI-H2228; first compound 0.253 µM): 0.997
- relative viability (NCI-H2228; first compound 0.8 µM): 0.864
- relative viability (NCI-H2228; first compound 2.53 µM): 1.59
- relative viability (NCI-H2228; first compound 8 µM): 0.958
- relative viability (COR-L23; first compound 0.253 µM): 1.05
- relative viability (COR-L23; first compound 0.8 µM): 0.935
- relative viability (COR-L23; first compound 2.53 µM): 1.29
- relative viability (COR-L23; first compound 8 µM): 1.2
- relative viability (NCI-H1734; first compound 0.253 µM): 1.09
- relative viability (NCI-H1734; first compound 0.8 µM): 1.1
- relative viability (NCI-H1734; first compound 2.53 µM): 1.18
- relative viability (NCI-H1734; first compound 8 µM): 0.969
- relative viability (NCI-H2347; first compound 0.253 µM): 0.928
- relative viability (NCI-H2347; first compound 0.8 µM): 0.797
- relative viability (NCI-H2347; first compound 2.53 µM): 0.894
- relative viability (NCI-H2347; first compound 8 µM): 0.802
- relative viability (HCC-366; first compound 0.253 µM): 1.03
- relative viability (HCC-366; first compound 0.8 µM): 1.1
- relative viability (HCC-366; first compound 2.53 µM): 1.03
- relative viability (HCC-366; first compound 8 µM): 1.07
- relative viability (NCI-H1944; first compound 0.253 µM): 0.932
- relative viability (NCI-H1944; first compound 0.8 µM): 0.59
- relative viability (NCI-H1944; first compound 2.53 µM): 0.754
- relative viability (NCI-H1944; first compound 8 µM): 0.602
- relative viability (HCC-15; first compound 0.253 µM): 0.902
- relative viability (HCC-15; first compound 2.53 µM): 1.07
- relative viability (HCC-15; first compound 8 µM): 0.841
- relative viability (NCI-H1793; first compound 0.253 µM): 0.675
- relative viability (NCI-H1793; first compound 0.8 µM): 0.483
- relative viability (NCI-H1793; first compound 2.53 µM): 1.07
- relative viability (NCI-H1793; first compound 8 µM): 0.454
- relative viability (NCI-H3122; first compound 0.253 µM): 1.04
- relative viability (NCI-H3122; first compound 0.8 µM): 1.03
- relative viability (NCI-H3122; first compound 2.53 µM): 0.974
- relative viability (NCI-H3122; first compound 8 µM): 1.13
